{"source": "patent US20180194762A1", "about": "(Pharmacyclics LLC, priority 2017, published 2018)", "assay_type_in_all_cases": "biochemical", "key": {"Btk": {"target": "T1, Btk (Homo sapiens, UniProt Q06187)", "T1 construct": "purified from insect cells as a full-length construct containing a N-terminal 6X-His tag; His6 (N); made in house; host or cells: insect cells (Method C)", "T1 sequence (Q06187 whole entry)": "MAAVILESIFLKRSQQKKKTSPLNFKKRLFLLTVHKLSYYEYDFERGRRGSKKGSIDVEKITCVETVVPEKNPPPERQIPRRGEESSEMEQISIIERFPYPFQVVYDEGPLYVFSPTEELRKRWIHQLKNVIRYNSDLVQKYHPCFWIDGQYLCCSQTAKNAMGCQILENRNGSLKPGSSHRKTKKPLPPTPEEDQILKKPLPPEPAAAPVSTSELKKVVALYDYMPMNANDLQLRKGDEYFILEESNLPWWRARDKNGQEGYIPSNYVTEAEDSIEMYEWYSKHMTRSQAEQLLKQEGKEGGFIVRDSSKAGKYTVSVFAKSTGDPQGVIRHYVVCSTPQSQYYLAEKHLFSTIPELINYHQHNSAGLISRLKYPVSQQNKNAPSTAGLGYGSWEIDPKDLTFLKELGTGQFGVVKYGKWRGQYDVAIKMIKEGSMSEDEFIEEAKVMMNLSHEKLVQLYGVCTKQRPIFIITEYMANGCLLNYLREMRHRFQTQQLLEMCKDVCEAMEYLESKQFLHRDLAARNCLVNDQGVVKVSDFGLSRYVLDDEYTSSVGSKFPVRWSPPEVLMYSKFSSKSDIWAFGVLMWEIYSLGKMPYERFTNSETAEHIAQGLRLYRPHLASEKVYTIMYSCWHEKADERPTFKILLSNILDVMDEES", "assay": "Btk in vitro inhibitory activity (one of Method A TR-FRET, Method B electrophoretic mobility shift, Method C radiometric filter binding)", "conditions": "wild-type Btk; read-out: Btk-WT IC50", "method_in_brief": "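Three alternative formats were used. A radiometric filter-binding read used 8 nM full-length His-BTK with 0.2 mg/mL poly(Glu-Tyr) 4:1 (C); microfluidic separation of 1 μM FAM-peptide by 1 nM BTK gave IC50 from 12-point curves (B); TR-FRET at Km ATP, 0.5 nM Btk, gave Ki(app)-derived IC50 (A).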"}, "panel of kinases": {"target": "T2, panel of kinases (Homo sapiens, UniProt P51813)", "T2 sequence (P51813 1-675)": "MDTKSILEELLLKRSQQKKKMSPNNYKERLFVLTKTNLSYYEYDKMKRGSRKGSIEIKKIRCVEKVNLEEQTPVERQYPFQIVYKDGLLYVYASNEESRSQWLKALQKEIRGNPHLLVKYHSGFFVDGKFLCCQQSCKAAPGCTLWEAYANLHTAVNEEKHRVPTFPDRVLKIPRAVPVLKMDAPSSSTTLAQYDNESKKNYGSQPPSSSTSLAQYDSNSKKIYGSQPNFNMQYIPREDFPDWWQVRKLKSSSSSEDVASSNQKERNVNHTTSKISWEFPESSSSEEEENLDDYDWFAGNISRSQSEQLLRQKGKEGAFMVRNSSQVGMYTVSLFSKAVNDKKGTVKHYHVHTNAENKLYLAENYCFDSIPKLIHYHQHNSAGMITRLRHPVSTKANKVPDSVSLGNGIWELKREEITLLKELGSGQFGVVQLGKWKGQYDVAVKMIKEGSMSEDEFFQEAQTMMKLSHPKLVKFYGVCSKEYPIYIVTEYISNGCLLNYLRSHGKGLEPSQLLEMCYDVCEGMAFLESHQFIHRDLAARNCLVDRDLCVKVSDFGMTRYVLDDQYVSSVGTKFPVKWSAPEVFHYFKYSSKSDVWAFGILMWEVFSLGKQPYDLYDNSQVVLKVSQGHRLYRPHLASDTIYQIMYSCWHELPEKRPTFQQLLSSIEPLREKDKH", "assay": "Inhibition of a panel of kinases (in vitro HotSpot kinase assay, 33P-ATP, 1 μM ATP), other kinases", "conditions": "BMX wild-type, read-out: BMX-WT IC50", "method_in_brief": "(§1)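 At 1 μM ATP spiked with 33P-ATP, substrate phosphorylation by the purified enzymes gives the extent of inhibition.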"}, "TEC": {"target": "T3, TEC (Homo sapiens, UniProt P42680)", "T3 sequence (P42680 1-631)": "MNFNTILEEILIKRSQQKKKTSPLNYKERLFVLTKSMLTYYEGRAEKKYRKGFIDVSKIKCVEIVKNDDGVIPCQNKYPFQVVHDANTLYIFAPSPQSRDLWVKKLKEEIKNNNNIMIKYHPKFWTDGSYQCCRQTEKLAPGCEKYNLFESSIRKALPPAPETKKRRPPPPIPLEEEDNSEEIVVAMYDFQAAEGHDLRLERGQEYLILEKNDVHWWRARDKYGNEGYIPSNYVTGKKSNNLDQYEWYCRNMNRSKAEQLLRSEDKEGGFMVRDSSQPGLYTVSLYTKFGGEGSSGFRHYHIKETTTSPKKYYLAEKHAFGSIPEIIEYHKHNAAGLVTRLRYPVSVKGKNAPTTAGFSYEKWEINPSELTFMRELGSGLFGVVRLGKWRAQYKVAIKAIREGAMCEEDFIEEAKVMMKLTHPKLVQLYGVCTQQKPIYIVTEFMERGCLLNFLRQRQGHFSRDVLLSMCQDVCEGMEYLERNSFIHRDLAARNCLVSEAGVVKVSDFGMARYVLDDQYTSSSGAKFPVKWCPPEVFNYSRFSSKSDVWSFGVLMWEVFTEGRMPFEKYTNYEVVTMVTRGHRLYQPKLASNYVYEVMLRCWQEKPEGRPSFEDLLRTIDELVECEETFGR", "assay": "Inhibition of a panel of kinases (in vitro HotSpot kinase assay, 33P-ATP, 1 μM ATP)", "conditions": "for IC50: HotSpot kinase assay, 1 μM ATP; for TEC/Btk: ratio of TEC IC50 to Btk IC50 (selectivity)", "method_in_brief": "as §1"}}, "data": [{"molecule": "C[C@@H](NC(=O)c1nc(C(C)(C)C)no1)c1ccc(-c2ccnc3[nH]nc(N[C@@H]4CC[C@H](C)N(C(=O)N(C)C)C4)c23)cc1F", "note": "[Example 193, (2S,5R)-5-{[4-(4-{(1R)-1-[(3-tert-butyl-1,2,4-oxadiazole-5-carbonyl)amino]ethyl}-3-fluorophenyl)-1H-pyrazolo[3,4-b]pyridin-3-yl]amino}-N,N,2-trimethylpiperidine-1-carboxamide]", "values": [{"measurement": "IC50", "setting": "Btk", "value": 0.000355, "unit": "µM"}, {"measurement": "IC50", "setting": "panel of kinases", "value": 1.04, "unit": "µM"}, {"measurement": "IC50", "setting": "TEC", "value": 0.381, "unit": "µM"}, {"measurement": "TEC/Btk", "setting": "TEC", "value": 1073}]}, {"molecule": "C[C@H]1CC[C@@H](Nc2n[nH]c3nccc(-c4ccc(CNC(=O)c5nc(C(C)(C)C)no5)c(F)c4)c23)CN1C(=O)n1ccnc1", "note": "[Example 196, 3-tert-butyl-N-{[2-fluoro-4-(3-{[(3R,6S)-1-(1H-imidazole-1-carbonyl)-6-methylpiperidin-3-yl]amino}-1H-pyrazolo[3,4-b]pyridin-4-yl)phenyl]methyl}-1,2,4-oxadiazole-5-carboxamide]", "values": [{"measurement": "IC50", "setting": "Btk", "value": 0.00196, "unit": "µM"}, {"measurement": "IC50", "setting": "panel of kinases", "value": 3.43, "unit": "µM"}, {"measurement": "IC50", "setting": "TEC", "value": 1.6, "unit": "µM"}, {"measurement": "TEC/Btk", "setting": "TEC", "value": 816}]}, {"molecule": "CC(=O)N[C@@H]1CCN(c2n[nH]c3nccc(-c4ccc(CNC(=O)c5nc(C(C)C)no5)c(F)c4)c23)C1", "note": "[Example 200, N-[(4-{3-[(3R)-3-acetamidopyrrolidin-1-yl]-1H-pyrazolo[3,4-b]pyridin-4-yl}-2-fluorophenyl)methyl]-3-(propan-2-yl)-1,2,4-oxadiazole-5-carboxamide]", "values": [{"measurement": "IC50", "setting": "Btk", "value": 0.00428, "unit": "µM"}, {"measurement": "IC50", "setting": "panel of kinases", "value": 1.4, "unit": "µM"}, {"measurement": "IC50", "setting": "TEC", "value": 1.47, "unit": "µM"}, {"measurement": "TEC/Btk", "setting": "TEC", "value": 343}]}, {"molecule": "C[C@@H](NC(=O)c1nc(C(C)(C)C)no1)c1ccc(-c2ccnc3[nH]nc(NC4CCCC4)c23)cc1", "note": "[Example 201, 3-tert-butyl-N-[(1R)-1-{4-[3-(cyclopentylamino)-1H-pyrazolo[3,4-b]pyridin-4-yl]phenyl}ethyl]-1,2,4-oxadiazole-5-carboxamide]", "values": [{"measurement": "IC50", "setting": "Btk", "value": 0.0102, "unit": "µM"}, {"measurement": "IC50", "setting": "panel of kinases", "value": 6.7, "unit": "µM"}, {"measurement": "IC50", "setting": "TEC", "value": 8.34, "unit": "µM"}, {"measurement": "TEC/Btk", "setting": "TEC", "value": 818}]}, {"molecule": "C[C@@H](NC(=O)c1cc(C(C)(C)O)on1)c1ccc(-c2ccnc3[nH]nc(NC4CCN(S(C)(=O)=O)CC4)c23)cc1", "note": "[Example 203, 5-(2-hydroxypropan-2-yl)-N-{(1R)-1-[4-(3-{[1-(methanesulfonyl)piperidin-4-yl]amino}-1H-pyrazolo[3,4-b]pyridin-4-yl)phenyl]ethyl}-1,2-oxazole-3-carboxamide]", "values": [{"measurement": "IC50", "setting": "Btk", "value": "> 1", "unit": "µM"}, {"measurement": "IC50", "setting": "panel of kinases", "value": "> 10", "unit": "µM"}, {"measurement": "IC50", "setting": "TEC", "value": "> 10", "unit": "µM"}, {"measurement": "TEC/Btk", "setting": "TEC", "value": ">10000"}]}, {"molecule": "CC(=O)N1CCC(Nc2n[nH]c3nccc(-c4ccc([C@@H](C)NC(=O)c5cc(C(C)(C)O)on5)cc4)c23)CC1", "note": "[Example 204, N-[(1R)-1-(4-{3-[(1-acetylpiperidin-4-yl)amino]-1H-pyrazolo[3,4-b]pyridin-4-yl}phenyl)ethyl]-5-(2-hydroxypropan-2-yl)-1,2-oxazole-3-carboxamide]", "values": [{"measurement": "IC50", "setting": "Btk", "value": "> 1", "unit": "µM"}, {"measurement": "IC50", "setting": "panel of kinases", "value": "> 10", "unit": "µM"}, {"measurement": "IC50", "setting": "TEC", "value": "> 10", "unit": "µM"}, {"measurement": "TEC/Btk", "setting": "TEC", "value": ">10000"}]}, {"molecule": "CC(C)(C)c1noc(C(=O)NCc2ccc(-c3ccnc4[nH]nc(N5CCC(NC(=O)C6CC6)CC5)c34)cc2F)n1", "note": "[Example 207, 3-tert-butyl-N-{[4-(3-{4-[(cyclopropanecarbonyl)amino]piperidin-1-yl}-1H-pyrazolo[3,4-b]pyridin-4-yl)-2-fluorophenyl]methyl}-1,2,4-oxadiazole-5-carboxamide]", "values": [{"measurement": "IC50", "setting": "Btk", "value": 0.000375, "unit": "µM"}, {"measurement": "IC50", "setting": "panel of kinases", "value": 1.22, "unit": "µM"}, {"measurement": "IC50", "setting": "TEC", "value": 0.815, "unit": "µM"}, {"measurement": "TEC/Btk", "setting": "TEC", "value": 2173}]}, {"molecule": "CC(C)(C)c1noc(C(=O)NCc2ccc(-c3ccnc4[nH]nc(N5CCC(NC(=O)c6ccccc6)CC5)c34)cc2F)n1", "note": "[Example 208, N-({4-[3-(4-benzamidopiperidin-1-yl)-1H-pyrazolo[3,4-b]pyridin-4-yl]-2-fluorophenyl}methyl)-3-tert-butyl-1,2,4-oxadiazole-5-carboxamide]", "values": [{"measurement": "IC50", "setting": "Btk", "value": 0.000658, "unit": "µM"}, {"measurement": "IC50", "setting": "panel of kinases", "value": 2.09, "unit": "µM"}, {"measurement": "IC50", "setting": "TEC", "value": 1.71, "unit": "µM"}, {"measurement": "TEC/Btk", "setting": "TEC", "value": 2599}]}]}
